The results in this text go back to BindingDB's records for doi:10.1002/cbic.201000339 (University of York, 2010).

pKd: −log10 of the molar value.

This assay deals with T1, Alpha-fucosidase-like protein (Bacteroides thetaiotaomicron (strain ATCC 29148 / DSM 2079 / JCM 5827 / CCUG 10774 / NCTC 10582 / VPI-5482 / E50), UniProt Q8ABG8).
T1 sequence (Q8ABG8 whole entry): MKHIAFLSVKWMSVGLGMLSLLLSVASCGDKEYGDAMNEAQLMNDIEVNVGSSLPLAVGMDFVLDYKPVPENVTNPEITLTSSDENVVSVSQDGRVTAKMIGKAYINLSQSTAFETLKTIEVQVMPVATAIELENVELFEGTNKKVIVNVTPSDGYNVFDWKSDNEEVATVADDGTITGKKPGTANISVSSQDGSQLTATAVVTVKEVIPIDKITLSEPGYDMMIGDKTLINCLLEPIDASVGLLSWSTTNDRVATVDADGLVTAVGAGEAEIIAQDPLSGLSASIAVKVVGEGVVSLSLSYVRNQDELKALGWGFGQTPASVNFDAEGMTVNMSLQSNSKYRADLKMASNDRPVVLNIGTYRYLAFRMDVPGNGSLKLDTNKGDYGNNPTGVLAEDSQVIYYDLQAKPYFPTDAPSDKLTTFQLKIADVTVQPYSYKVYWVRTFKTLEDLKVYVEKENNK
The assay can be described thus: Enzyme Assay. To be noted: 37 °C. The procedure:
The kinetic studies involving a spectrophotometric product were conducted by monitoring the change in UV/visible absorbance with a Cintra 10 spectrophotometer.

For orientation: pKd means −log10 of the Kd, conventionally taken in molar units. A higher pKd goes with a small Kd. For `CC1NC(CNC(=O)c2cccc3c2C(=O)c2ccccc2-3)C(O)C(O)C1O` (stereo not given) [Fucosidase Inhibitor, 4], the pKd was 7.33 (pH 6) and 6.80 (pH 8.5).
Take `C[C@@H]1NC[C@@H](O)[C@H](O)[C@@H]1O`: the pKd runs as follows: (pH 6) 7.83; (pH 6.5) 7.57; (pH 8.5) 6.43.
